Assay results published in paper PMC5028038, “Demethoxycurcumin Is A Potent Inhibitor of P-Type ATPases from Diverse Kingdoms of Life” (PLoS ONE, 2016).
In brackets after ≈: the same amount, converted by molar mass. Like-named read-outs stand apart in the source and are kept apart here.

Key:
[1] = test system: S. cerevisiae strain RS-72; test: Drop test, yeast growth, all tested RS-72 strains; assay type: cell-based; settings: Saccharomyces cerevisiae, RS72, 72 h, read-out: Minimum inhibitory concentration (MIC), yeast growth
Excerpt: (§1) The S. cerevisiae strain RS-72 (MATa ade1-100 his4-519 leu2-3, 112) was transformed according to the lithium acetate/single-stranded carrier DNA/polyethylene glycol method, and cultured essentially as described previously. In RS-72, the promoter of the endogenous yeast PM H^+-ATPase PMA1 gene was replaced by the galactose-dependent GAL1 promoter. This strain grew in media containing galactose, whereas growth in glucose-based medium requires the complementation of the yeast PM H^+-ATPase with a functional PM H^+-ATPase expressed from a plasmid. A 2-micron yeast expression vector was used for expression of different versions of the Arabidopsis thaliana PM H^+-ATPase AHA2 (pMP 1625); a 92-amino acid C-terminal truncated mutation, aha2∆92 (pMP 132); or the wild-type S. cerevisiae PM H^+-ATPase PMA1 (pMP 400) placed under the control of the PMA1 promoter. The use of RS-72 allows for purification of microsomes with a very low endogenous ATPase activity compared to RS-72 transformed with an H^+-ATPase carrying plasmid.
(§2) Transformed yeast cells, cultured on synthetic galactose (SG) agar medium supplemented with adenine 40 μg/mL and L-histidine 20 μg/mL (SGAH plates) for 3 days at 30°C, were suspended in H2O to 1x solution (OD660 = 1). Serial dilutions of 0.1, 0.01, 0.001 x of the cells were then prepared and spotted adjacently onto synthetic minimal media plates containing either 2% galactose or 2% glucose at pH 5.5 (SGAH or SDAH), incorporated with different concentrations of tested compound. Growth results were recorded after incubation for 3 days at 30°C. Minimum inhibitory concentrations (MIC values) were determined as the lowest concentrations of compounds where no visible growth of cells was observed.

[2] = target: T1, A. thaliana PM H+-ATPase isoform AHA2 (Arabidopsis thaliana, UniProt P19456); test: ATP hydrolysis (Baginski) assay on AHA2 in yeast plasma membranes; assay type: biochemical; settings: for effect on AHA2 ATPase activity: 50 μM compound; for slope factor H of inhibition curve, AHA2: variable slope fit
T1 construct: made in house; host or cells: S. cerevisiae strain RS-72, plasma membranes isolated
T1 sequence (P19456 1-948): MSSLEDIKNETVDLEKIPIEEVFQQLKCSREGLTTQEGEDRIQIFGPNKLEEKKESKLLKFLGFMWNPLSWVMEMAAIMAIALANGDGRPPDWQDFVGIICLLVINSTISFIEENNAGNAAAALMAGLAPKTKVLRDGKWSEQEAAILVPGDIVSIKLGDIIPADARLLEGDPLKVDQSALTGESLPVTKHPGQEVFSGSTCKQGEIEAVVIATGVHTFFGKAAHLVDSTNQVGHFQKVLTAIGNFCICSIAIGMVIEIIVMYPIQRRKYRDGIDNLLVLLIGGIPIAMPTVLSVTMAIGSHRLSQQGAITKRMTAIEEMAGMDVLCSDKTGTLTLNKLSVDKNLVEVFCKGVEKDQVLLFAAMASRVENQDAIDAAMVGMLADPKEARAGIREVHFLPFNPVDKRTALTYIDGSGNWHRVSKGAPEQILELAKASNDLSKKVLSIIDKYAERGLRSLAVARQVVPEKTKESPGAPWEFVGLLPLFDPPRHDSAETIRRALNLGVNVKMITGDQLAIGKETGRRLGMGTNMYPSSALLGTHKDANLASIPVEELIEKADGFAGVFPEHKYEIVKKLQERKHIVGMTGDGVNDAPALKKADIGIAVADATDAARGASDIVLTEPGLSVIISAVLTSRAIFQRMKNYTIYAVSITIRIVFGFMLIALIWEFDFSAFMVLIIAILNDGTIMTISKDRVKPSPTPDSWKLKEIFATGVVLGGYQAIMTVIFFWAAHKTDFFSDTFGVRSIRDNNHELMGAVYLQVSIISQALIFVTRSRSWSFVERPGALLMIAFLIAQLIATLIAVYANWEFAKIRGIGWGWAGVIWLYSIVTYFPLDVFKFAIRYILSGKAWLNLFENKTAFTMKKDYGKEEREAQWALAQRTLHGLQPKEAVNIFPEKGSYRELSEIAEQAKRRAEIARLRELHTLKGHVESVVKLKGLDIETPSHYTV
Excerpt: as §1
(§3) Yeast expressing AHA2 and Pma1p PM H^+-ATPase, respectively, were grown and harvested essentially as described. The cells were grown with glucose as carbon source in order to ensure than no endogenous plasma membrane H^+-ATPase is expressed. Microsomes and plasma membranes were isolated with all manipulations performed at 4°C. The final pellets containing the isolated membranes were collected and homogenized in GTED20 buffer (20% [v/v] glycerol, 10 mM Tris-HCl pH 7.5, 1 mM EDTA pH 8.0, 1 mM DTT) and stored at—80°C.
(§4) ATPase activity was determined by the Baginski assay as described previously using 2–5 μg of PM protein. The assays were performed at 30°C in 300 μL volumes with 3 mM ATP, pH 6.5, for determination of AHA2 activity, or with 5 mM ATP, pH 5.9 for Pma1p activity. The assay medium 20 mM MOPS, 50 mM KNO3 (to inhibit vacuolar ATPase), 5 mM NaN3 (to inhibit mitochondrial ATPase), 3.5 mM Na2MoO4 (to inhibit acid phosphatase), 1 mM Mg^2+ free in solution, and the indicated concentrations of MgATP. IC50 values for compound inhibition were determined by pre incubating PM with different concentrations of compound for 30 min at room temperature. For kinetics studies, the concentration of ATP was varied between 0.125 and 8 mM using an ATP regenerating system (5 mM phosphoenolpyruvate and 50 μg/mL pyruvate kinase).
(§5) The kinetic of inhibition for DMCM was determined by monitoring the rate of ATP hydrolysis reaction in the presence of increasing ATP substrate concentration. All kinetic data were gathered from experiments performed in the cuvette-based assay, as described above. The data were used in Hanes-Woolf analysis followed by fitting to the appropriate Michaelis-Menten inhibition equation (competitive, noncompetitive, uncompetitive, or mix type inhibition). The kinetic parameters Vmax, Km, Ki were estimated by nonlinear regression using GraphPad Prism 5.0 (GraphPad Software Inc.). For evaluation of inhibitor potency, IC50 values were calculated by using the equation: A=100/1+10^(LogIC50−LogC)×H where A is the observed % ATPase activity in the presence of compound; C, the compound concentration; IC50, the concentration that caused 50% inhibition of the maximal compound effect; and H, the slope factor.

[3] = test system: S. cerevisiae RS-72 expressing Pma1p; test: Drop test, yeast RS-72 expressing Pma1p; assay type: cell-based; settings: Saccharomyces cerevisiae, 72 h; no visible growth after 3 days at 30°C
Excerpt: as §1, §2

[4] = target: T2, yeast plasma membrane H+-ATPase Pma1p (Saccharomyces cerevisiae, UniProt P05030); test: ATP hydrolysis (Baginski) assay on Pma1p in yeast plasma membranes; assay type: biochemical, S. cerevisiae; settings: for effect on Pma1p ATPase activity: 50 μM compound; for slope factor H of inhibition curve, Pma1p: variable slope fit
T2 construct: made in house; host or cells: S. cerevisiae strain RS-72 (chromosomal PMA1 under GAL1 promoter, repressed on glucose), plasma membranes isolated
T2 sequence (P05030 whole entry): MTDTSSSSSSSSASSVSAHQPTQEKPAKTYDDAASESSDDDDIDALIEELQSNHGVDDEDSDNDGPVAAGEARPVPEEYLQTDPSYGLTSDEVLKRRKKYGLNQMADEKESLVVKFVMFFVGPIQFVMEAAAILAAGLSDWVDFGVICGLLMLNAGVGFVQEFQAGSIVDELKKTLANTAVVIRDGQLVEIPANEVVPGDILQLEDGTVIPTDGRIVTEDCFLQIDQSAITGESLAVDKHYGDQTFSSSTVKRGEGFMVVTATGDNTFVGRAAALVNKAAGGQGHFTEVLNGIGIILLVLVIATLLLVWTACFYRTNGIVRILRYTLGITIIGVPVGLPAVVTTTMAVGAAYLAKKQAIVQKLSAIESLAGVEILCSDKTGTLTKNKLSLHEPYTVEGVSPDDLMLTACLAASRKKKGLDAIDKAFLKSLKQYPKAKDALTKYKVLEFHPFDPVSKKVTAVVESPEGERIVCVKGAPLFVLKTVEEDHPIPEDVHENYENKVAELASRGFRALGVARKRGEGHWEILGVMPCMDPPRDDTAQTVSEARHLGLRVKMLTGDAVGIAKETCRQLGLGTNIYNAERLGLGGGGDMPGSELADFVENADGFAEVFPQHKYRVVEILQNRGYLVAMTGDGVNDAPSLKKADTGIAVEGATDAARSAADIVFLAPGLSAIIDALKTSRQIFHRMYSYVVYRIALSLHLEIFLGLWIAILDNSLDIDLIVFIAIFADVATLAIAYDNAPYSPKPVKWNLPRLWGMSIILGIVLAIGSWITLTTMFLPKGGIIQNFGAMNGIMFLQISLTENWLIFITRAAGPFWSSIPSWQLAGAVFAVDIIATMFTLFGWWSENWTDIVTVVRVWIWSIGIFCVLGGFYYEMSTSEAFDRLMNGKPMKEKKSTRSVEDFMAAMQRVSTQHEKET
Excerpt: as §1, §3, §4, §5

[5] = test system: S. cerevisiae RS-72 expressing AHA2; test: Drop test, yeast RS-72 expressing AHA2; assay type: cell-based; settings: Saccharomyces cerevisiae, 72 h; no visible growth after 3 days at 30°C
Excerpt: as §1, §2

SERCA1a (Ca2+-ATPase) = SERCA1a (Ca2+-ATPase) (Oryctolagus cuniculus, UniProt P04191); test: SERCA ATP hydrolysis, NADH-coupled spectrophotometric assay; assay type: biochemical, rabbit; settings: purified leaky SERCA preparation
SERCA1a (Ca2+-ATPase), sequence (P04191 1-994 isoform P04191-2): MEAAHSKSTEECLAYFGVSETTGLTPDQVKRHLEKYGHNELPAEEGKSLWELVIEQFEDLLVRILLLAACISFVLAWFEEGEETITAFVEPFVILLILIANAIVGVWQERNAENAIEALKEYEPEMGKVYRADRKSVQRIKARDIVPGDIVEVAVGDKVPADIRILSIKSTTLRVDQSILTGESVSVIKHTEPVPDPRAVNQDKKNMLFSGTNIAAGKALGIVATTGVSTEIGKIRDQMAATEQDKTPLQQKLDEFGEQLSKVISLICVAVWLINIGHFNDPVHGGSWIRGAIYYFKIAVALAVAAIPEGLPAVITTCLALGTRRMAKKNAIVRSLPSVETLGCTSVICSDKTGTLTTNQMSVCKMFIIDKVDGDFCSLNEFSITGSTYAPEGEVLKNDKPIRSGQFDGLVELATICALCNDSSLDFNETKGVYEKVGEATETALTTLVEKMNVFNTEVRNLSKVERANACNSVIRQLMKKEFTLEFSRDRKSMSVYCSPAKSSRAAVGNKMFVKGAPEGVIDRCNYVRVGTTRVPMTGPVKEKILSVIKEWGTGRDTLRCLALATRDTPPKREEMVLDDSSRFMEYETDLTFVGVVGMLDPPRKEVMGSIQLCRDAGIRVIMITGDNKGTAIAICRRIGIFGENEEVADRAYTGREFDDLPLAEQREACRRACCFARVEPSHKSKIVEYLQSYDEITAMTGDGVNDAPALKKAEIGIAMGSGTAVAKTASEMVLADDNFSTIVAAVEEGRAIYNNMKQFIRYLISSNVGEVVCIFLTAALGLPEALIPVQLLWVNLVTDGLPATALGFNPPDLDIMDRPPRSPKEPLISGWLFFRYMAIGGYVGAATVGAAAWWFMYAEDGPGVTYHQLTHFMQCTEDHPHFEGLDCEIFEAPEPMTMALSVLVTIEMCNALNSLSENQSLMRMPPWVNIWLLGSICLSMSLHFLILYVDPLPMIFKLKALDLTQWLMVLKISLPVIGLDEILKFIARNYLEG
Excerpt: Sarcoplasmic reticulum vesicles, prepared from the leg and back muscles of rabbits, were used to obtain purified SERCA1a by extraction with a low concentration of deoxycholate according to established methods. The resulting membrane fragments were used for enzymatic assays to test the effect of the curcuminoid compounds on ATP hydrolysis spectrophotometrically by NADH oxidation with an ATP regenerating system.

[6] = design: method as in PMID 17999464; settings: due to fast metabolism; cited from earlier work
[7] = design: method as in doi:10.1016/S0260-8774(02)00264-9; settings: cited from earlier work
[8] = test system: PM H+-ATPase in spinach plasma membrane vesicles; test: Proton pumping assay (ACMA fluorescence quenching) in spinach plasma membrane vesicles; assay type: biochemical, Spinacia oleracea; settings: 5–20 μM
Protocol: Baby spinach (Spinacia oleracea) leaves (50 g) were cut into small pieces and homogenized. Subsequently plasma membranes were isolated by two-phase partitioning according to [58]. Plasma membranes were collected and homogenized in the phase buffer containing 330 mM sucrose, 5 mM potassium phosphate pH 7.8, 2 mM KCl, 0.1 mM EDTA, and 1 mM DTT and stored at—80°C.
Inside-out vesicles were created from spinach plasma membranes by adding the detergent Brij-58 to the buffer. Proton transport into the vesicles was determined as described by monitoring fluorescence quenching (excitation at 412 nm, emission at 480 nm) of 9-amino-6-chloro-2-methoxyacridine (ACMA). The reaction medium contained 20 mM MOPS-KOH, pH 7.0, 40 mM K2SO4, 25 mM KNO3, 2 mM ATP, 1 μM ACMA, 60 nM valinomycin and 0.05% (w/v) Brij-58. Proton pumping reactions were started by the addition of MgSO4 to a final concentration of 2 mM, and the proton gradient was collapsed by the addition of 10 μM nigericin.

[9] = 3 mM ATP, pH 6.5, 30°C, 30 min preincubation, read-out: IC50, ATP hydrolysis, AHA2

| Compound | effect on AHA2 ATPase activity [2] | slope factor H of inhibition curve, AHA2 [2] | MIC [3] | effect on Pma1p ATPase activity [4] | slope factor H of inhibition curve, Pma1p [4] | MIC [5] | IC50 (SERCA1a (Ca2+-ATPase)) | MIC [1] | IC50 [2, 9] | IC50 [4] | also measured |
| --- | --- | --- | --- | --- | --- | --- | --- | --- | --- | --- | --- |
| O=C(/C=C(O)/C=C/c1ccc(O)cc1)/C=C/c1ccc(O)cc1 [BDCM (3), bisdemethoxycurcumin] | significantly inhibited | ~1 | 210 to 220 µM (≈ 64.7 to 67.8 µg/mL) | significantly inhibited | ~1 | 200 to 210 µM (≈ 61.7 to 64.7 µg/mL) | – | – | – | – | MIC ([1]; approximate values, 3 days at 30°C): ~200 µM (≈ 61.7 µg/mL); IC50 [2]: 76.7 ± 1.1 µM; IC50 ([4]; 5 mM ATP, pH 5.9, 30°C, 30 min preincubation, read-out: IC50, ATP hydrolysis, Pma1p): 90.6 ± 1.1 µM |
| COc1cc(/C=C/C(=O)/C=C(O)/C=C/c2ccc(O)c(OC)c2)ccc1O [CM (1), Curcumin] | significantly inhibited | ~1 | 60 to 70 µM (≈ 22.1 to 25.8 µg/mL) | significantly inhibited | ~1 | 40 to 50 µM (≈ 14.7 to 18.4 µg/mL) | 3.9 ± 0.4 µM | ~50 µM (≈ 18.4 µg/mL) | 60.4 ± 1.1 µM | 76.1 ± 1 µM | bioavailability [6]: poor bioavailability |
| COc1cc(/C=C/C(=O)/C=C(O)/C=C/c2ccc(O)cc2)ccc1O [DMCM (2), demethoxycurcumin] | significantly inhibited | 2.4 | 40 to 50 µM (≈ 13.5 to 16.9 µg/mL) | significantly inhibited | 1.5 | 20 to 30 µM (≈ 6.77 to 10.2 µg/mL) | 2.6 ± 0.9 µM | ~30 µM (≈ 10.2 µg/mL) | 18.7 ± 1 µM | 28.9 ± 1 µM | AHA2 Vmax ([2]; 10 μM demethoxycurcumin): 0.46 ± 0.02 µM/mg/min; AHA2 Vmax ([2]; 20 μM demethoxycurcumin): 0.35 ± 0.01 µM/mg/min; AHA2 Vmax ([2]; 30 μM demethoxycurcumin): 0.19 ± 0.01 µM/mg/min; AHA2 Vmax ([2]; 40 μM demethoxycurcumin): 0.11 ± 0.01 µM/mg/min; fold lower IC50 value in comparison to CM or BDCM ([2]; AHA2 and Pma1p ATP hydrolysis): 2- to 4 fold; mode of inhibition versus ATP, AHA2 ([2]; DMCM 0-40 μM, ATP 0.125–8 mM): noncompetitive inhibitor; Ki ([2]; in vitro, noncompetitive model, ATP 0.125-8 mM): 14.7 ± 0.7 µM; chemical stability compared with CM [7]: more stable; Ki [4]: 27.7 ± 1.2 µM; Pma1p Vmax ([4]; 10 μM demethoxycurcumin): 1.00 ± 0.13 µM/mg/min; Pma1p Vmax ([4]; 20 μM demethoxycurcumin): 0.63 ± 0.05 µM/mg/min; Pma1p Vmax ([4]; 30 μM demethoxycurcumin): 0.48 ± 0.04 µM/mg/min; Pma1p Vmax ([4]; 40 μM demethoxycurcumin): 0.39 ± 0.04 µM/mg/min; mode of inhibition versus ATP, Pma1p ([4]; DMCM 0-40 μM, ATP 0.125–8 mM): noncompetitive inhibitor; effect on H+ pumping activity [8]: dramatically reversed |
